The test system of one data set is U251. Particulars: for CC50: read-out: LC50.
A further data set concerns NCI-H522. To be noted: NCI-H522, Non-Small Cell Lung, 48 h.
In another data set the test system is SK-MEL-5. To be noted: for CC50: read-out: LC50.
The subject of a further data set is TK-10. The format is cell-based. Particulars: TK-10, Renal, 48 h.
Another data set concerns DU-145. It is filed as cell-based. To be noted: DU-145, Prostate, 48 h.
Another data set concerns HL-60(TB). As to the kind of experiment: cells. Particulars: Homo sapiens, HL-60, 48 h.
Where [1] appears, read: Homo sapiens, read-out: LC50 (the source's name).

This passage reports GI50, TGI and CC50 results from patent publication US20040023994A1 (priority 2002, published 2004).

Read-outs that look alike come from different tables or passages of the source.

As to `CC(=O)C=CSc1nc(N)nc2nc[nH]c12` [trans-AVTG, 6-(2-acetylvinylthio) guanine], the GI50 with U251 (U251, CNS, 48 h) was found to be 6.55 µM; in the data set on NCI-H522 it was 0.02 µM; in the data set with MALME-3M (Melanoma, 48 h) it was 0.37 µM; in the data set on SK-MEL-5 (SK-MEL-5, Melanoma, 48 h), 1.68 µM. For the same compound, the TGI amounted to 48.4 µM with U251 (U251, CNS, 48 h); 0.05 µM in the data set with NCI-H522; 3.07 µM in the data set on MALME-3M (Melanoma, 48 h); 8.10 µM in the data set on SK-MEL-5 (SK-MEL-5, Melanoma, 48 h). Also, the CC50 in the data set on U251 (U251, CNS, 48 h) was greater than 100 µM; with NCI-H522 (read-out: LC50) it was 8.28 µM; in the data set on MALME-3M (read-out: LC50, Melanoma, 48 h) it was 29.3 µM; with SK-MEL-5 (SK-MEL-5, Melanoma, 48 h) it was 41.7 µM.
With `CC(=O)C=CSc1ncnc2nc[nH]c12` [cis-AVTP, 6-(2-acetylvinylthio) purine], the GI50 stood at 0.03 µM in the data set on TK-10 (Homo sapiens); 1.32 µM with DU-145 (Homo sapiens); 2.74 µM in the data set with U251 (Homo sapiens, U-251, 48 h); 0.49 µM in the data set on HL-60(TB); 1.3 µM in the data set on SK-MEL-5 (Homo sapiens, SK-MEL-5, 48 h). Further, the CC50 with TK-10 (setting [1]) is 13.9 µM; with DU-145 (setting [1]), 24.4 µM; with U251 (Homo sapiens, U-251, 48 h) it was 56.3 µM; in the data set with HL-60(TB) (read-out: LC50), greater than 100 µM; in the data set on SK-MEL-5 (Homo sapiens, SK-MEL-5, 48 h), 8.07 µM. For the same compound, the TGI came out at 0.64 µM in the data set with TK-10; 3.97 µM with DU-145; 10.2 µM in the data set with U251 (U251, CNS, 48 h); 3.24 µM in the data set with SK-MEL-5 (SK-MEL-5, Melanoma, 48 h).

Broadly, the GI50 is the concentration at which growth is held to half of that of the control. The term TGI denotes the concentration at which net growth stops. Read a high TGI as lower sensitivity of the cells.
